Each structure is given as a SMILES string. Structures can show the parent of a compound that is named as a salt.

Data set [1] deals with subjects with severe heart failure. Conditions: addition of spironolactone; cited from earlier work.
In data set [2] the test system is African American subjects with heart failure. Kind of data set: Left ventricular remodeling by transthoracic echocardiography at baseline and six months. In kind it is in vivo, human. The protocol:
Subjects were followed to an endpoint of death or heart failure hospitalization. Quality of Life Assessment was performed by the Minnesota Living with Heart Failure Questionnaire at baseline and at the six month visit. Left ventricular function was assessed transthoracic echocardiography at baseline and six months. The primary endpoint for A-HeFT was a composite weighted score with three components: mortality, heart failure hospitalization and change in quality of life. Left ventricular remodeling was investigated in a subset of A-HeFT subjects by transthoracic echocardiography at baseline and at six months. Event free survival was compared by genotype class by Kaplan-Meier log rank analysis, using a linear model that predicts an intermediate phenotype for heterozygotes. Continuous variables such as composite scores were compared by genotype class by linear ANOVA. For the interaction of aldosterone genotype and the impact of therapy, outcomes analyzed by genotype were compared first overall and then separately by treatment subset, fixed combination of isosorbide dinitrate and hydralazine versus placebo.

The conditions of data set [3]: cited from earlier work.
The subject of data set [4] is black cohorts with hypertension. Particulars: cited from earlier work.
For data set [5], the system named is post myocardial infarction. Conditions: addition post myocardial infarction; cited from earlier work.

Consider `CC(=O)S[C@@H]1CC2=CC(=O)CC[C@]2(C)[C@H]2CC[C@@]3(C)[C@@H](CC[C@@]34CCC(=O)O4)[C@H]12` [spironolactone], for which, in data set [1], the survival result is on record as “improved survival”. Besides, the results for the “Left Ventricular Diastolic Diameter (LVDD) at 6 Months” value in data set [2] (-344 CC genotype), in data set [2] (-344 TC genotype) and in data set [2] (-344 TT genotype) were 6.5 ± 0.8 cm, 6.3 ± 1.5 cm and 6.2 ± 1.4 cm, respectively. Moreover, the “Left Ventricular Ejection Fraction (LVEF) at 6 Months” value in data set [2] (-344 CC genotype) worked out at 32 ± 6%.

With `O=[N+]([O-])O[C@H]1CO[C@H]2[C@@H]1OC[C@H]2O[N+](=O)[O-]` [isosorbide dinitrate, 1,4,3,6-dianhydro-D-glucitol-2,5-dinitrate], the “solubility in organic solvents” value in data set [3] (organic solvents such as ethanol, ether and chloroform) is reported as “freely soluble”. Moreover, the solubility in water entry in data set [3] is given as “sparingly soluble”.

Consider `COC(=O)[C@@H]1CC2=CC(=O)CC[C@]2(C)[C@@]23O[C@@H]2C[C@@]2(C)[C@@H](CC[C@@]24CCC(=O)O4)[C@H]13` [eplerenone], for which the “effectiveness versus angiotensin II antagonists” value in data set [4] is reported as “more effective than angiotensin II antagonists”. In addition, the survival entry in data set [5] is on record as “improves survival”.

`NNc1nncc2ccccc12` [Hydralazine hydrochloride, hydralazine hydrochloride]: the solubility in alcohol entry in data set [3] (alcohol) was “slightly soluble”. The solubility in ether entry in data set [3] (ether) was “very slightly soluble”. Further, the solubility in water entry in data set [3] was “soluble”.

(Values after patent US20090253662A1, “GENETIC RISK ASSESSMENT IN HEART FAILURE: IMPACT OF GENETIC VARIATION OF ALDOSTERONE SYNTHASE PROMOTER POLYMORPHISM” (NitroMed, Inc., priority 2005, published 2009).)
